From patent US20180071284A1, “PREVENTING OR TREATING VIRAL INFECTION BY INHIBITION OF THE HISTONE METHYLTRANSFERASE EZH1 OR EZH2” (The United States of America, as represented by the …, priority 2015, published 2018)
“Also recorded” adds a separate entry of the source.

Tests used:
Type in all cases: cell-based, herpes simplex virus 1 (HSV-1)
[1] = system: HSV-1; assay: UL29+ single neurons and neuron clusters in explanted trigeminal ganglia; conditions: explant 48-hrs; compound 1 35 μM, compound 4 30 μM, ACV 100 μM, ML324 50 μM
Excerpt: Trigeminal ganglia were fixed in paraformaldehyde and tissue sections were […] with anti-UL29 and DAPI. The HSV E gene UL29 (DNA single strand binding replication protein) was used a marker for viral reactivation. Tissue sections were scored for UL29+ cell clusters (clusters indicate viral spread from the primary neuron to surrounding cells) and for individual neurons representing the primary reactivation event (single) (FIGS. 18 and 19).
Trigeminal ganglia were fixed in paraformaldehyde and tissue sections were costained with anti-UL29 and DAPI. The HSV E gene UL29 (DNA single strand binding replication protein) was used a marker for viral reactivation. Tissue sections were scored for UL29+ cell clusters (clusters indicate viral spread from the primary neuron to surrounding cells) and for individual neurons representing the primary reactivation event (single) (FIG. 25).

[2] = system: HSV-1; assay: HSV-1 viral IE mRNA levels in infected Vero (IFN-β null, IRF3 deficient) cells; conditions: 5-hrs pretreatment, HSV-1 2.0 PFU per cell
Description: HFF (wild-type) and Vero (IFN-β null, IRF3 deficient) cells were treated with the indicated concentration of EZH1/2 catalytic inhibitor (compound 1 or 4) or DMSO (vehicle) for 5-hrs. HFF and Vero cells were then infected with HSV-1 (2.0 PFU per cell) for 1.5-hrs in the presence of inhibitor or DMSO. The levels of HSV viral IE (ICP0, ICP4, ICP22, and ICP27) and cellular control (SP1 and TBP) mRNAs are expressed relative to cells treated with DMSO (vehicle).

[3] = system: HSV-1; assay: Mouse trigeminal ganglia explant reactivation model, viral yield titrated on Vero cells; conditions: explant 48-hrs; compound 1 35 μM, compound 3 30 μM, compound 4 30 μM
Description: Trigeminal ganglia from HSV-1 latently infected mice were bisected. Half were explanted in media with control DMSO (vehicle), and the other half were explanted in media with ACV (100 μM), ML324 (50 μM), compound 1 (35 μM), compound 3 (30 μM), or compound 4 (30 μM) for 48-hrs to induce viral reactivation. Viral yields were determined by titrating on Vero cells. Each point represents the titer of one explanted trigeminal ganglia.

[4] = system: HSV-1; assay: HSV-1 cellular and nuclear entry (viral DNA in total and nuclear fractions of HFF cells); conditions: compound 1 35 μM, compound 4 30 μM, 5-hrs pretreatment, HSV-1 2.0 PFU per cell 1.5-hrs
Description: HFF cells were treated with the EZH1/2 catalytic inhibitor compound 1 (35 μM), compound 4 (30 μM), or DMSO (vehicle) for 5-hrs. The HFF cells were then infected with HSV-1 (2.0 PFU per cell) for 1.5-hrs in the presence of the inhibitors or DMSO (vehicle). The levels of HSV viral DNA isolated from total and nuclear cellular fractions are expressed as ratios relative to DMSO (vehicle).

[5] = system: HSV-1; assay: Spread of HSV infection in HFF cells (UL29 staining); conditions: HSV-1 MOI 0.01 for 8.5-hrs, then treated for 12.5-hrs (30 μM)
Description: HFF cells were mock or infected with HSV-1 (MOI 0.01) for 8.5-hrs to allow one round of the viral replication program. The HFF cells were then treated with EZH1/2 inhibitor (compound 1 or compound 4 at 30 μM), viral DNA polymerase inhibitor (ACV at 100 μM), or JMJD3 inhibitor (ML324 at 50 μM) for an additional 12.5-hrs. Cells were paraformaldehyde fixed, permeabilized, and stained for the viral E gene UL29 and actin. The viral E protein UL29 was used as a marker for the spread of viral infection.
HFF cells were mock or infected with HSV-1 (MOI 0.01) for 8.5-hrs to allow one round of the viral replication program. HFF cells were then treated with EZH1/2 (compound 1, compound 4), viral DNA polymerase (ACV), or JMJD3 (ML324) inhibitors for additional 12.5-hrs. Cells were paraformaldehyde fixed, permeabilized, and stained for the viral E gene UL29 and actin (Phalloidin). The viral E protein UL29 was used as a marker for the spread of viral infection.

[6] = system: HSV-1; assay: Removal of inhibitors prior to HSV-1 infection of HFF cells (mRNA levels); conditions: washed, then infected; for HSV IE expression after removal of compound prior to infection: 5-hrs treatment (compound 1 35 μM, 2 15 μM, 3 30 μM, 4 30 μM); for IL6 stimulation after removal of compound prior to infection: 5-hrs treatment
Description: HFF cells were treated with inhibitors targeting the catalytic SET domain (compound 1, 35 μM: EZH2; compound 2, 15 μM: EZH2 and EZH1; compound 4, 30 μM: EZH2), EED-EZH2 and EED-EZH1 (compound 3, 30 μM), or DMSO (control) for 5-hrs. Cells were then washed with phosphate buffered saline (PBS) and replaced with media with no inhibitors for the indicated time in FIGS. 21-24 prior to infection with HSV-1 (2.0 PFU per cell) for 1.5-hrs in the absence of inhibitors.

## Nc1nc2c(ncn2COCCO)c(=O)[nH]1 [ACV, Acyclovir]
[1]
  primary reactivation (UL29+ single neurons): reduced

## CN(C)CCCNC(=O)c1ccc(-c2cc(O)c3ncccc3c2)cc1 [ML324, N-(3-(dimethylamino)propyl)-4-(8-hydroxyquinolin-6-yl)benzamide]
[1]
  primary reactivation (UL29+ single neurons): reduced
  secondary spread of HSV (UL29+ neuron clusters): reduced

## CCCc1cc(C)[nH]c(=O)c1CNC(=O)c1cc(-c2ccnc(N3CCN(C)CC3)c2)cc2c1cnn2C(C)C [compound 1, GSK343]
[2]
  antiviral activity (HSV IE mRNA) in Vero cells as compared to HFF (wild-type) cells: lack of antiviral activity
[3]
  HSV reactivation from latency (viral yield per explanted trigeminal ganglia): block HSV reactivation from latency
[4]
  HSV-1 viral entry (total and nuclear): no impact
[5]
  spread of HSV infection to adjacent cells (UL29 marker): block the spread of HSV to adjacent cells; also recorded: block the spread of HSV infection
[6]
  HSV IE expression after removal of compound prior to infection: recovery of HSV IE expression
  IL6 stimulation after removal of compound prior to infection: decrease in IL6 stimulation
[1]
  primary reactivation (UL29+ single neurons): reduced
  secondary spread of HSV (UL29+ neuron clusters): reduced

## CCCc1cc(C)[nH]c(=O)c1CNC(=O)c1cc(-c2ccc(N3CCN(C(C)C)CC3)nc2)cc2c1cnn2C(C)C [compound 2, UNC1999]
[6]
  HSV IE expression after removal of compound prior to infection: recovery of HSV IE expression
  IL6 stimulation after removal of compound prior to infection: decrease in IL6 stimulation

## COc1ccc(CCN2CCC(Nc3nc4ccccc4n3Cc3ccc(F)cc3)CC2)cc1 [compound 3, astemizole]
[3]
  HSV reactivation from latency (viral yield per explanted trigeminal ganglia): block HSV reactivation from latency
[6]
  HSV IE expression after removal of compound prior to infection: recovery of HSV IE expression
